Source: the NIST ThermoML archive (doi:10.1021/acs.jced.9b00525)
Numbers after ± are expanded uncertainties.

Settings: Surface laser light scattering (SLLS); for viscosity: Liquid

CCCCCCCCCC [decane]
Settings	surface tension liquid-gas [mN/m]	viscosity [mPa·s]
283.15 K	23.94 ± 0.52	1.077 ± 0.035
293.15 K	23.05 ± 0.57	0.9005 ± 0.029
303.15 K	22.39 ± 0.48	0.79 ± 0.026
313.15 K	21.43 ± 0.46	0.6924 ± 0.025
323.15 K	20.61 ± 0.44	0.6091 ± 0.022
348.15 K	18.75 ± 0.39	0.4636 ± 0.019
373.15 K	16.52 ± 0.36	0.3614 ± 0.016
398.15 K	14.38 ± 0.31	0.2895 ± 0.015
423.15 K	12.4 ± 0.32	0.2403 ± 0.013
448.15 K	10.29 ± 0.22	0.1978 ± 0.012
473.15 K	8.52 ± 0.23	0.1677 ± 0.012
498.15 K	6.58 ± 0.16	0.1366 ± 0.011
523.15 K	4.97 ± 0.12	0.1138 ± 0.01
548.15 K	3.43 ± 0.1	0.0974 ± 0.01
573.15 K	1.94 ± 0.09	0.0762 ± 0.0098

CCCCCCCCCCCCCCCC [hexadecane]
Settings	surface tension liquid-gas [mN/m]	viscosity [mPa·s]
293.15 K	27.38 ± 0.64	3.486 ± 0.1
303.15 K	26.6 ± 0.7	2.772 ± 0.095
313.15 K	25.56 ± 0.31	2.261 ± 0.081
323.15 K	24.28 ± 0.41	1.84 ± 0.061
348.15 K	22.19 ± 0.31	1.236 ± 0.047
373.15 K	20.31 ± 0.23	0.8927 ± 0.03
398.15 K	18.54 ± 0.14	0.6788 ± 0.024
423.15 K	16.69 ± 0.25	0.5351 ± 0.02
448.15 K	15.09 ± 0.14	0.4256 ± 0.018
473.15 K	13.26 ± 0.21	0.344 ± 0.016
498.15 K	11.46 ± 0.19	0.2862 ± 0.015
523.15 K	9.72 ± 0.28	0.236 ± 0.013
548.15 K	8.25 ± 0.22	0.1937 ± 0.013
573.15 K	7 ± 0.29	0.1705 ± 0.012

CCCCCC [hexane]
Settings	surface tension liquid-gas [mN/m]	viscosity [mPa·s]
283.15 K	19.28 ± 0.22	0.3495 ± 0.016
293.15 K	18.22 ± 0.17	0.3127 ± 0.015
303.15 K	17.34 ± 0.19	0.2809 ± 0.014
313.15 K	16.22 ± 0.21	0.2546 ± 0.014
323.15 K	15.31 ± 0.14	0.234 ± 0.013
348.15 K	12.94 ± 0.12	0.1905 ± 0.012
373.15 K	10.53 ± 0.1	0.155 ± 0.011
398.15 K	8.21 ± 0.08	0.1268 ± 0.011
423.15 K	5.98 ± 0.06	0.1026 ± 0.01
448.15 K	3.75 ± 0.07	0.0837 ± 0.0097
473.15 K	1.89 ± 0.03	0.0655 ± 0.0093

CCCCCCCC [octane]
Settings	surface tension liquid-gas [mN/m]	viscosity [mPa·s]
283.15 K	22.25 ± 0.19	0.6247 ± 0.023
293.15 K	21.31 ± 0.24	0.5523 ± 0.021
303.15 K	20.53 ± 0.23	0.4828 ± 0.019
313.15 K	19.45 ± 0.22	0.432 ± 0.018
323.15 K	18.64 ± 0.21	0.387 ± 0.017
348.15 K	16.37 ± 0.21	0.3079 ± 0.015
373.15 K	14 ± 0.14	0.2487 ± 0.014
398.15 K	11.9 ± 0.12	0.2028 ± 0.013
423.15 K	9.81 ± 0.15	0.1665 ± 0.012
448.15 K	7.88 ± 0.07	0.1393 ± 0.011
473.15 K	5.82 ± 0.1	0.1168 ± 0.01
498.15 K	4 ± 0.13	0.0947 ± 0.01
523.15 K	2.32 ± 0.06	0.0755 ± 0.0095
